The source of these data is paper PMC6545003, “Cytotoxic and cell cycle arrest properties of two steroidal alkaloids isolated from Holarrhena floribunda (G. Don) T. Durand & Schinz leaves” (BMC Complementary and Alternative Medicine, 2019).

Where two headings read alike, the source gives them in different places.

Series [1] relates to HT-29 cells. Briefly: MTT reduction assay. The series is classed as cell-based, human. Particulars: for Selectivity index: HT-29 versus non-cancerous KMST-6.
Description: (§3) Viable cells were seeded at a density of 5 x10^4 cells/ml (100 μl/well) in 96-well plates and incubated in a humidified atmosphere of 5% CO2 and 95% air at 37°C for 24 h to form a cell monolayer. After 24 h, the cell culture medium was aspirated and 100 μl fresh medium containing varying concentrations of test compounds in log10 doses were added to the cells and the 96-well plates incubated for a further 24 h [16, 17].
(§4) After the 24 h treatments, 20 μl of 5 mg/ml MTT (prepared in PBS) was added to each well and the 96-well plates incubated for 3 h at 37°C in a 5% CO2 atmosphere. The supernatant was aspirated and 150 μl of isopropanol added to each well after which the plate was gently shaken for 15 min to solubilize the formazan crystals and the absorbance was measured at 560 nm using a Glomax Multi Detection System (Promega, USA). The percentage inhibition of cell proliferation was calculated using the formula below and IC50 values computed by non-linear regression analysis of log dose-response sigmoidal curves using GraphPad Prism version 6.05 for Windows (GraphPad Software, La Jolla California USA, www.graphpad.com). %Inhibition of Proliferation=100‐TestOD/UntreatedODx100%
Series [2] has as its system MCF-7 cells. Briefly: MTT reduction assay. Conditions: for Selectivity index: MCF-7 versus non-cancerous KMST-6. Type of series: cell-based, human.
Description: as §3, §4
Series [3] relates to KMST-6 non-cancerous fibroblast cells. Kind of series: MTT reduction assay. Type of series: cell-based, human. In general terms: Tetrazolium dyes change colour on reduction, which living cells bring about.
Description: as §3, §4
The subject of series [4] is HeLa cells. Kind of series: MTT reduction assay. The series is classed as cell-based, human. Particulars: for Selectivity index: HeLa versus non-cancerous KMST-6; for IC50: HeLa.
Description: as §3, §4
For series [5], the system named is MCF-7 cells. Briefly: BrdU incorporation assay (chemiluminescent ELISA). The series is classed as cell-based, human. Conditions: MCF-7, IC50 concentration. Here is the method: (§1) Cells were seeded at a density of 5 × 10^4 cells/well in black-walled 96-well microtiter plates and incubated for 24 h at 37 °C in a CO2 incubator to form a monolayer. The cells were treated for 12, 24 and 48 h with the isolated compounds at concentrations equivalent to the IC50 concentrations (as determined by the MTT reduction assay). Cell proliferation was determined using the ELISA-BrdU (5-bromo-2′-deoxyuridine) chemiluminescence assay kit (Roche, Germany), according to the manufacturer’s instruction, and expressed as the percentage DNA synthesis relative to the untreated control.
For orientation: Dividing cells build labelled thymidine or BrdU into new DNA.

Series [6] relates to HeLa cells. Kind of series: BrdU incorporation assay (chemiluminescent ELISA). Type of series: cell-based, human. Particulars: IC50 concentration. Here is the method: as §1
For series [7], the system named is HT-29 cells. Briefly: BrdU incorporation assay (chemiluminescent ELISA). Type of series: cell-based, human. Conditions: HT-29, IC50 concentration. As to the method: as §1
Series [8] has as its system MCF-7 cells. Kind of series: Cell cycle analysis, PI flow cytometry. The series is classed as cell-based, human. Particulars: MCF-7, IC50 concentration. Here is the method: (§2) Cells were seeded at a density of 2 × 10^5 cells/well in 6-well plates and incubated for 24 h at 37 °C in a CO2 incubator to form a monolayer. The cells were treated for 12 and 24 h with the isolated compounds at concentrations equivalent to the IC50 concentrations (as determined by the MTT reduction assay). After treatment, the cells were detached with trypsin, washed in PBS and the cell pellet was resuspended in 1 ml of 1% paraformaldehyde and placed on ice for 30 min. Ethanol (70%, v/v) was slowly added to the cells while the sample was vortexed to reduce cell clumping. The cells were stored at − 20 °C for 48 h, after which the cells were recovered by centrifugation at 4000 rpm for 10 min. The cell pellets were washed twice in PBS and then resuspended in 1 ml PBS containing 100 μg/ml RNase and 40 μg/ml propidium iodide. Cell cycle phase distribution was determined using a FACS Calibur Flow Cytometer (BD Biosciences Franklin Lakes, NJ, USA). The DNA content of 50,000 events was determined by ModFit software (Verity Software House, Topsham, ME), which provided histograms to evaluate the cell cycle distribution.

In series [9] the test system is HeLa cells. Kind of series: Cell cycle analysis, PI flow cytometry. Type of series: cell-based, human. Particulars: IC50 concentration, 24 h. As to the method: as §2
On the technique in general: A flow cytometer gives signals particle by particle.

For series [10], the system named is HT-29 cells. Kind of series: Cell cycle analysis, PI flow cytometry. The series is classed as cell-based, human. Conditions: HT-29, IC50 concentration, 12 and 24 h. As to the method: as §2
On the set-up of series [11]: method as in doi:10.1135/cccc20041506. Conditions: at a neuro-active concentration; cited from earlier work.
[12] abbreviates: Homo sapiens, HT-29, MTT, 24 h treatment, read-out: IC50.
The mark [13] stands for this setting: Homo sapiens, MCF7, MCF-7, MTT, 24 h treatment, read-out: IC50.
The mark [14] stands for this setting: Homo sapiens, Fibroblast, KMST-6, MTT, 24 h treatment, read-out: IC50.
The mark [15] stands for this setting: Homo sapiens, MTT, 24 h treatment, read-out: IC50.

For the compound `N.N.[Cl][Pt][Cl]` [Cisplatin], the IC50 with HT-29 cells [1] (HT-29, MTT, 24 h treatment, read-out: IC50) was 7.07 µM; in the series on MCF-7 cells [2] (MCF-7, MTT, 24 h treatment, read-out: IC50) it was 10.6 µM; in series [3] (KMST-6, MTT, 24 h treatment, read-out: IC50) it was 6.14 µM; in the series with HeLa cells [4] (MTT, 24 h treatment, read-out: IC50) it was 2.91 µM. The Selectivity index is 0.87 in the series on HT-29 cells [1], 0.58 in the series on MCF-7 cells [2] and 2.11 in the series with HeLa cells [4].
On to `CC(=O)[C@H]1CC[C@H]2[C@@H]3CC=C4C[C@H](N)CC[C@]4(C)[C@H]3CC[C@]12C` [Compound 1, holamine], for which the “Change in DNA synthesis between 12 and 24 h” value in the series on MCF-7 cells [5] and with HT-29 cells [7] was “significant reduction” in each case. In the series on HeLa cells [6], the “Change in DNA synthesis between 24 and 48 h” value was “significant reduction”. Also, the results for the Selectivity index in the series on HT-29 cells [1], in the series on HT-29 cells [1] (listed as C1) and in the series on HeLa cells [4] were 3.82, 3.31 and 2.00, respectively. In addition, the IC50 in the series on HT-29 cells [1] (setting [12]) is 31.1 µM; with MCF-7 cells [2] (setting [13]), 42.8 µM; in series [3] (setting [14]), 103 µM; with HeLa cells [4] (setting [15]), 51.4 µM. For the same compound, the “Cell population in G2/M-phase” value is given as “significant increase” in the series with MCF-7 cells [8] (12 h), “not significant” with MCF-7 cells [8] (24 h) and “significant decrease” with HeLa cells [9]. Also, the “Cell population in G2/M phase” value in the series with HT-29 cells [10] is reported as “significant increase”.
In the case of `CC(=O)[C@H]1CC[C@H]2[C@@H]3CC[C@H]4C[C@H](N)CC[C@]4(C)[C@H]3CC[C@]12C` [Compound 2, funtumine], the “Change in DNA synthesis between 24 and 48 h” value with MCF-7 cells [5] is listed as “significantly (P < 0.05) reduced”; in the series with HT-29 cells [7], “significant reduction”. Also, the “Change in DNA synthesis between 12 and 24 h” value with HeLa cells [6] is recorded as “significant reductions”; with HT-29 cells [7] it was “significant reduction”. The Selectivity index came to 3.31 with HT-29 cells [1], 3.82 with HT-29 cells [1] (listed as C2) and 1.85 with MCF-7 cells [2]. Also, the IC50 stood at 22.4 µM in the series on HT-29 cells [1] (Homo sapiens, HT-29, 24 h); 52.7 µM in the series on MCF-7 cells [2] (Homo sapiens, MCF7, 24 h); 85.5 µM in [3] (Homo sapiens, Fibroblast, 24 h); 46.2 µM in the series on HeLa cells [4] (Homo sapiens, 24 h). Besides, the “Cell population in G2/M-phase” value in the series on MCF-7 cells [8] (12 h) and with MCF-7 cells [8] (24 h) was “significant increase” in each case. In the series with HT-29 cells [10], the “Cell population in G2/M phase” value was “significant increase”. For the same compound, the Cytotoxicity entry in [11] is on record as “no cytotoxicity”.
As to `COc1cccc2c1C(=O)c1c(O)c3c(c(O)c1C2=O)C[C@@](O)(C(=O)CO)C[C@@H]3O[C@H]1C[C@H](N)[C@H](O)[C@H](C)O1` [Dox, Doxorubicin], the Selectivity index in the series with HT-29 cells [1] was 0.27; with MCF-7 cells [2] it was 0.57; in the series with HeLa cells [4], 1.31. The half-inhibitory concentration (IC50) with HT-29 cells [1] (setting [12]) turned out to be 17.4 µM; in the series on MCF-7 cells [2] (setting [13]), 8.2 µM; in series [3] (setting [14]), 4.68 µM; in the series with HeLa cells [4] (setting [15]), 3.57 µM.

By IC50 is commonly meant the concentration that gives 50% inhibition.
